Results as given in patent publication US20060281700A1, “SYNERGISTIC MODULATION OF FLT3 KINASE USING AMINOPYRIMIDINES KINASE MODULATORS” (priority 2005, published 2006).

System: MV4-11 cells
Assay: Inhibition of MV4-11 cell proliferation (CellTiterGlo, 72 hours)
Format: cell-based
Conditions: Homo sapiens; 72 hours growth; uncertainty ±20%
Experimental: Inhibition Of MV4-11 and Baf3 Cell Proliferation
To assess the cellular potency of the FLT3 inhibitors of Formula I′, FLT3 specific growth inhibition was measured in the leukemic cell line MV4-11 (ATCC Number: CRL-9591). […] MV4-11 cells cannot grow and survive without active FLT3ITD.
To measure proliferation inhibition by test compounds, the luciferase based CellTiterGlo reagent (Promega), which quantifies total cell number based on total cellular ATP concentration, was used. Cells are plated at 10,000 cells per well in 100 ul of in RPMI media containing penn/strep, 10% FBS and 1 ng/ml GM-CSF or 1 ng/ml IL-3 for MV4-11 and Baf3 cells respectively.
Compound dilutions or 0.1% DMSO (vehicle control) are added to cells and the cells are allowed to grow for 72 hours at standard cell growth conditions (37° C., 5% CO2). For activity measurements in MV4-11 cells grown in 50% plasma, cells were plated at 10,000 cells per well in a 1:1 mixture of growth media and human plasma (final volume of 100 μL). To measure total cell growth an equal volume of CellTiterGlo reagent was added to each well, according to the manufacturer's instructions, and luminescence was quantified. Total cell growth was quantified as the difference in luminescent counts (relative light units, RLU) of cell number at Day 0 compared to total cell number at Day 3 (72 hours of growth and/or compound treatment). One hundred percent inhibition of growth is defined as an RLU equivalent to the Day 0 reading. Zero percent inhibition was defined as the RLU signal for the DMSO vehicle control at Day 3 of growth. All data points are an average of triplicate samples. […] Inhibition and IC50 data analysis was done with GraphPad Prism using a non-linear regression fit with a multiparamater, sigmoidal dose-response (variable slope) equation.
MV4-11 cells express the FLT3 internal tandem duplication mutation, and thus are entirely dependent upon FLT3 activity for growth. […] In contrast, the Baf3 cell proliferation is driven by the cytokine IL-3 and thus are used as a non-specific toxicity control for test compounds.

| Compound | IC50 [nM] |
| --- | --- |
| CO/N=C/c1c(N)ncnc1N1CCC(NC(=O)Nc2ccc(N3CCCCC3)cc2)C1 (stereo not shown) [Number 9, 1-{1-[6-Amino-5-(methoxyimino-methyl)-pyrimidin-4-yl]-pyrrolidin-3-yl}-3-(4-piperidin-1-yl-phenyl)-urea] | 764 |
| CO/N=C/c1c(N)ncnc1N1CCC(NC(=O)Nc2ccc(N3CCOCC3)cc2)C1 (stereo not shown) [Number 10, 1-{1-[6-Amino-5-(methoxyimino-methyl)-pyrimidin-4-yl]-pyrrolidin-3-yl}-3-(4-morpholin-4-yl-phenyl)-urea] | 569 |
| CO/N=C/c1c(N)ncnc1N1CCC(NC(=O)Nc2ccc(OC3CCC3)nc2)C1 (stereo not shown) [Number 11, 1-{1-[6-Amino-5-(methoxyimino-methyl)-pyrimidin-4-yl]-pyrrolidin-3-yl}-3-(6-cyclobutoxy-pyridin-3-yl)-urea] | 398 |
| CO/N=C/c1c(N)ncnc1N1CCC(NC(=O)Nc2ccc(N3CCCCC3)cc2)CC1 [Number 13, 1-{1-[6-Amino-5-(methoxyimino-methyl)-pyrimidin-4-yl]-piperidin-4-yl}-3-(4-piperidin-1-yl-phenyl)-urea] | 587 |
| CO/N=C/c1c(N)ncnc1N1CCC(NC(=O)Nc2ccc(N3CCOCC3)cc2)CC1 [Number 14, 1-{1-[6-Amino-5-(methoxyimino-methyl)-pyrimidin-4-yl]-piperidin-4-yl}-3-(4-morpholin-4-yl-phenyl)-urea] | 1200 |
| CO/N=C/c1c(N)ncnc1N1CCC(NC(=O)Nc2ccc(OC3CCC3)nc2)CC1 [Number 15, 1-{1-[6-Amino-5-(methoxyimino-methyl)-pyrimidin-4-yl]-piperidin-4-yl}-3-(6-cyclobutoxy-pyridin-3-yl)-urea] | 578 |
| CO/N=C/c1c(N)ncnc1N1CCC(NC(=O)Nc2ccc(C3CCCCC3)cc2)C1 (stereo not shown) [Number 17, 1-{1-[6-Amino-5-(methoxyimino-methyl)-pyrimidin-4-yl]-pyrrolidin-3-yl}-3-(4-cyclohexyl-phenyl)-urea] | 386 |
| CO/N=C/c1c(N)ncnc1N1CCC(NC(=O)Nc2ccc(Oc3ccccc3)cc2)C1 (stereo not shown) [Number 19, 1-{1-[6-Amino-5-(methoxyimino-methyl)-pyrimidin-4-yl]-pyrrolidin-3-yl}-3-(4-phenoxy-phenyl)-urea] | 371 |
| CO/N=C/c1c(N)ncnc1N1CCC(NC(=O)Nc2ccc(N3CCCC3)cc2)C1 (stereo not shown) [Number 20, 1-{1-[6-Amino-5-(methoxyimino-methyl)-pyrimidin-4-yl]-pyrrolidin-3-yl}-3-(4-pyrrolidin-1-yl-phenyl)-urea] | 491 |
| CO/N=C/c1c(N)ncnc1N1CCC(NC(=O)Nc2ccc(OC3CCCC3)nc2)C1 (stereo not shown) [Number 21, 1-{1-[6-Amino-5-(methoxyimino-methyl)-pyrimidin-4-yl]-pyrrolidin-3-yl}-3-(6-cyclopentyloxy-pyridin-3-yl)-urea] | 249 |
| CO/N=C/c1c(N)ncnc1N1CCC(NC(=O)Nc2ccc(OC3CCCC3)nc2)CC1 [Number 23, 1-{1-[6-Amino-5-(methoxyimino-methyl)-pyrimidin-4-yl]-piperidin-4-yl}-3-(6-cyclopentyloxy-pyridin-3-yl)-urea] | 651 |

Now from value to molecule:

| IC50 [nM] | Compound |
| --- | --- |
| 740 | CO/N=C/c1c(N)ncnc1N1CCC(OC(=O)Nc2ccc(OC(C)C)cc2)CC1 [Number 1, (4-Isopropoxy-phenyl)-carbamic acid 1-[6-amino-5-(methoxyimino-methyl)-pyrimidin-4-yl]-piperidin-4-yl ester] |
| 135 | CCO/N=C/c1c(N)ncnc1N1CCC(OC(=O)Nc2ccc(OC(C)C)cc2)CC1 [Number 2, (4-Isopropoxy-phenyl)-carbamic acid 1-[6-amino-5-(ethoxyimino-methyl)-pyrimidin-4-yl]-piperidin-4-yl ester] |
| 1400 | CC(C)Oc1ccc(NC(=O)OC2CCN(c3ncnc(N)c3/C=N/OCCCN(C)C)CC2)cc1 [Number 4, (4-Isopropoxy-phenyl)-carbamic acid 1-{6-amino-5-[(3-dimethylamino-propoxyimino)-methyl]-pyrimidin-4-yl}-piperidin-4-yl ester] |
| 11 | CO/N=C/c1c(N)ncnc1N1CCC(OC(=O)Nc2ccc(C(C)C)cc2)CC1 [Number 5, (4-Isopropyl-phenyl)-carbamic acid 1-[6-amino-5-(methoxyimino-methyl)-pyrimidin-4-yl]-piperidin-4-yl ester] |
| 31 | CO/N=C/c1c(N)ncnc1N1CCC(CC(=O)Nc2ccc(C(C)C)cc2)C1 (stereo not shown) [Number 6, 2-{1-[6-Amino-5-(methoxyimino-methyl)-pyrimidin-4-yl]-pyrrolidin-3-yl}-N-(4-isopropyl-phenyl)-acetamide] |
| 208 | CO/N=C/c1c(N)ncnc1N1CCC(CC(=O)Nc2ccc(C(C)C)cc2)CC1 [Number 7, 2-{1-[6-Amino-5-(methoxyimino-methyl)-pyrimidin-4-yl]-piperidin-4-yl}-N-(4-isopropyl-phenyl)-acetamide] |
| 455 | CO/N=C/c1c(N)ncnc1N1CCC(NC(=O)Nc2ccc(OC(C)C)cc2)C1 (stereo not shown) [Number 8, 1-{1-[6-Amino-5-(methoxyimino-methyl)-pyrimidin-4-yl]-pyrrolidin-3-yl}-3-(4-isopropoxy-phenyl)-urea] |
| 672 | CO/N=C/c1c(N)ncnc1N1CCC(NC(=O)Nc2ccc(OC(C)C)cc2)CC1 [Number 12, 1-{1-[6-Amino-5-(methoxyimino-methyl)-pyrimidin-4-yl]-piperidin-4-yl}-3-(4-isopropoxy-phenyl)-urea] |
| 735 | CO/N=C/c1c(N)ncnc1N1CCC(NC(=O)Nc2ccc(Cl)cc2)C1 (stereo not shown) [Number 18, 1-{1-[6-Amino-5-(methoxyimino-methyl)-pyrimidin-4-yl]-pyrrolidin-3-yl}-3-(4-chloro-phenyl)-urea] |
| 672 | CO/N=C/c1c(N)ncnc1N1CCC(NC(=O)Nc2ccc(C3CCCCC3)cc2)CC1 [Number 22, 1-{1-[6-Amino-5-(methoxyimino-methyl)-pyrimidin-4-yl]-piperidin-4-yl}-3-(4-cyclohexyl-phenyl)-urea] |
| 890 | CO/N=C/c1c(N)ncnc1N1CCC(NC(=O)Nc2ccc(Cl)cc2)CC1 [Number 25, 1-{1-[6-Amino-5-(methoxyimino-methyl)-pyrimidin-4-yl]-piperidin-4-yl}-3-(4-chloro-phenyl)-urea] |
| 856 | CO/N=C/c1c(N)ncnc1N1CCC(NC(=O)Nc2ccc(Oc3ccccc3)cc2)CC1 [Number 26, 1-{1-[6-Amino-5-(methoxyimino-methyl)-pyrimidin-4-yl]-piperidin-4-yl}-3-(4-phenoxy-phenyl)-urea] |
| 498 | CCNC(=O)NCCO/N=C/c1c(N)ncnc1N1CCC(NC(=O)Nc2ccc(C(C)C)cc2)C1 (stereo not shown) [Number 28, 1-[1-(6-Amino-5-{[2-(3-ethyl-ureido)-ethoxyimino]-methyl}-pyrimidin-4-yl)-pyrrolidin-3-yl]-3-(4-isopropyl-phenyl)-urea] |
| 856 | CC(C)c1ccc(NC(=O)NC2CCN(c3ncnc(N)c3/C=N/OCC(=O)N3CCOCC3)C2)cc1 (stereo not shown) [Number 29, 1-(1-{6-Amino-5-[(2-morpholin-4-yl-2-oxo-ethoxyimino)-methyl]-pyrimidin-4-yl}-pyrrolidin-3-yl)-3-(4-isopropyl-phenyl)-urea] |
